Patent publication US20250228818A1, “PHARMACEUTICAL COMBINATION CONTAINING CAPSID PROTEIN INHIBITOR AND REVERSE TRANSCRIPTASE INHIBITOR” (priority 2021, published 2025)

Test system: rAAV8-1.3HBV
Assay: AAV/HBV mouse model experiment (serum HBV DNA)
Format: in vivo, mouse (male, C57BL/6)
Settings: mean ± standard error; for HBV DNA in mouse serum, day 7 / HBV DNA in mouse serum, day 14 / HBV DNA in mouse serum, day 21 / HBV DNA in mouse serum, day 28: i.g. QD day 0-27; for HBV DNA in mouse serum, day −2: day −2 (before first administration)
Method: rAAV8-1.3HBV (source: Beijing FivePlus Molecular Medicine Institute, titer: 1×10^12 v·g/mL) was used to establish an AAV/HBV mouse model (species: male, C57BL/6), and the mice were randomized into groups.
The compound of formula I was dissolved in DMSO, and PEG-400 was added to prepare a 1 mg/mL clear solution, which was then gradually diluted with the vehicle to 0.3 mg/mL, 0.1 mg/mL, and 0.03 mg/mL. After preparation, the dilutions were stored at room temperature.
Entecavir was dissolved in DMSO to prepare a 1 mg/mL solution, which was then gradually 1000-fold diluted with normal saline (NS) to 0.001 mg/mL. The dilution was aliquoted at 1 mL/tube to serve as a stock solution and stored in a freezer at −20° C. Each day, one tube was taken, and the solution in the tube was 10-fold diluted with NS to achieve the required administration concentration of 0.0001 mg/mL for daily administration.
rAAV8-1.3HBV (type D, ayw) was purchased from Beijing FivePlus Gene Technology Co., Ltd., with a titer of 1×10^12 v·g/mL.
Hepatitis B virus nucleic acid assay kit (Sansure Biotech Inc.), high-speed refrigerated centrifuge (Sorvall Legend), and real-time fluorescent quantitative PCR instrument (TL988).
AAV-HBV mouse model: rAAV8-1.3HBV was prepared into a solution with a concentration of 5×10^11 v·g/mL by sterile PBS in advance before injection. Each mouse was injected with 200 μL of the solution via the tail vein, with 1×10^11 v·g per mouse.
Blood sampling before grouping: On day 14 after the virus injection, all infected mice were subjected to blood sampling (approximately 100 μL per mouse) via the orbital vein for serum collection. After the whole blood was left to stand at room temperature for 30 min, serum was collected by centrifugation at 3000 rpm at 4° C. for 10 min. The collected serum was stored at −80° C. for HBV DNA, HBeAg and HBsAg detection.
Compound treatment: All mice were subjected to intragastric administration with the solvent or the compound. The day of the first administration was set as day 0 of the experiment, and the duration of administration was from day 0 to day 27. Entecavir was administered once daily (QD), and the compound of formula I was administered […]. The administration volume was 10 mL/kg.
The experimental method referred to the instructions of the hepatitis B virus nucleic acid assay kit. 5 μL of the nucleic acid release agent was added into each PCR reaction tube, and then 5 μL of the test serum, a negative control, a positive control and a quantitative reference substance were added separately. The mixture was then lysed for 10 min, and then 40 μL of PCR-mix was added, achieving a total volume of 50 μL in the system. Reaction conditions: 50° C. for 2 min, 1 cycle; 94° C. for 5 min, 1 cycle; 94° C. for 15 s, 57° C. for 30 s, 45 cycles; 25° C. for 10 s, 1 cycle. 2.4. Results in Tables 4-1 and 4-2

[1] = entecavir 0.001 mg/kg (ii), compound of formula I 1 mg/kg (iii), both (v)
[2] = groups: entecavir 0.001 mg/kg (ii), compound of formula I 1 mg/kg (iii), both (v)
[3] = compound of formula I 10 mg/kg (iv), with entecavir 0.001 mg/kg (vi)

Row | SMILES | HBV DNA in mouse serum, day 7 [1] | HBV DNA in mouse serum, day 14 [1] | HBV DNA in mouse serum, day 21 [1] | HBV DNA in mouse serum, day 28 [1] | HBV DNA in mouse serum, day −2 [2] | HBV DNA in mouse serum, day 7 [3] | HBV DNA in mouse serum, day 14 [3] | HBV DNA in mouse serum, day 21 [3] | HBV DNA in mouse serum, day 28 [3] | HBV DNA in mouse serum, day 35 (day 35 (administration ended day 27), compound of formula I 10 mg/kg (iv), with entecavir 0.001 mg/kg (vi)) | HBV DNA in mouse serum, day 42 (day 42 (administration ended day 27), compound of formula I 10 mg/kg (iv), with entecavir 0.001 mg/kg (vi)) | HBV DNA in mouse serum, day −2 (groups: compound of formula I 10 mg/kg (iv), with entecavir 0.001 mg/kg (vi))
1 | C=C1[C@H](CO)[C@@H](O)C[C@@H]1n1cnc2c(=O)[nH]c(N)nc21 [Entecavir, 2-amino-9-[(1S,3R,4S)-4-hydroxy-3-hydroxymethyl-2-methylenecyclopentyl]-1,9-dihydro-6H-purin-6-one, reference compound] | 5.17 ± 0.54 log10, copy/μL | 5.30 ± 0.30 log10, copy/μL | 5.22 ± 0.46 log10, copy/μL | 5.46 ± 0.45 log10, copy/μL | 7.78 ± 0.28 log10, copy/μL |  |  |  |  |  |  | 
2 | Cc1c(C(=O)Nc2ccc(F)c(C#N)c2)c(C)n(C)c1C(=O)C(=O)N[C@@H](C)C(F)(F)F [Compound of formula I, (S)—N-(3-cyano-4-fluorophenyl)-1,2,4-trimethyl-5-(2-oxo-2-((1,1,1-trifluoropropan-2-yl)amino)acetyl)-1H-pyrrole-3-carboxamide] | 6.16 ± 0.36 log10, copy/μL | 5.48 ± 0.34 log10, copy/μL | 5.23 ± 0.33 log10, copy/μL | 5.42 ± 0.38 log10, copy/μL | 7.71 ± 0.27 log10, copy/μL | 4.72 ± 0.86 log10, copy/μL | 3.97 ± 0.45 log10, copy/μL | 3.97 ± 0.31 log10, copy/μL | 3.75 ± 0.35 log10, copy/μL | 3.77 ± 0.45 log10, copy/μL | 5.18 ± 0.74 log10, copy/μL | 7.97 ± 0.22 log10, copy/μL
